ChEMBL document CHEMBL4419165, “Fibcd1 for the prevention and treatment of diseases” (2014)
The source made the active and inactive calls. No cut-off for these calls is given here.

How the values were obtained:
[1] = biological target: T1, Fibrinogen C domain-containing protein 1 (Homo sapiens) (UniProt Q8N539); assay: Binding affinity to V5-His tagged FIBCD1 ecto-domain (54 to 461 residues) (unknown origin) assessed as reduction in binding between FIBCD1 and acetylated BSA by ELISA relative to control
T1 sequence (whole entry): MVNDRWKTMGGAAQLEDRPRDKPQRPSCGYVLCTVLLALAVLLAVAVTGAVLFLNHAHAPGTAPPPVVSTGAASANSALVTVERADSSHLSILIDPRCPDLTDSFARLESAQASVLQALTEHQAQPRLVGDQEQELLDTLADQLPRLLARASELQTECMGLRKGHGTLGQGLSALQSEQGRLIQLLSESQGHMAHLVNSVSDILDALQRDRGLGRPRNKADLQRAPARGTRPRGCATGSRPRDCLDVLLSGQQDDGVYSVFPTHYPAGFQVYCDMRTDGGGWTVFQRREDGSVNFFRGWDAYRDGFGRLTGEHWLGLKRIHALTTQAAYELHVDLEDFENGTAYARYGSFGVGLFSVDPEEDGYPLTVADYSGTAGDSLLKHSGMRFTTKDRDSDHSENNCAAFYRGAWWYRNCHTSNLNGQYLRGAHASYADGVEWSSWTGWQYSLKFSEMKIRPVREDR

[2] = biological target: T1, Fibrinogen C domain-containing protein 1 (Homo sapiens); assay: Binding affinity to V5-His tagged FIBCD1 ecto-domain (54 to 461 residues) (unknown origin) assessed as reduction in binding between FIBCD1 and acetylated BSA at 50 mM by ELISA relative to control
[3] = biological target: T1, Fibrinogen C domain-containing protein 1 (Homo sapiens); assay: Binding affinity to V5-His tagged FIBCD1 ecto-domain (54 to 461 residues) (unknown origin) expressed in HEK293 cells assessed as reduction in binding between FIBCD1 and acetylated BSA by ELISA; type: cell-based
[4] = biological target: T1, Fibrinogen C domain-containing protein 1 (Homo sapiens); assay: Binding affinity to V5-His tagged FIBCD1 ecto-domain (54 to 461 residues) (unknown origin) expressed in CHO cells assessed as reduction in endocytosis of [125I]Acetylated BSA by measuring degraded acetylated BSA level measured up to 4 hrs; type: cell-based

Ratio [1]	inhibition [2] [%]	I50 [3]	Activity [4]	Compound
1				N[C@H]1[C@H]([C@H](O)[C@H](O)CO)OC(O)(C(=O)O)C[C@@H]1O (stereo not given in full)
	< 50	inactive		CCCC(=O)O
	< 50	inactive		O=C[C@H](O)[C@@H](O)[C@@H](O)[C@H](O)CO

The next lines start with the molecule.

Compound	Ratio [1]	inhibition [2] [%]	I50 [3]	Activity [4]
OC[C@H]1OC(O)[C@@H](O)[C@@H](O)[C@@H]1O (stereo not given in full)		< 50	inactive	
CC(=O)N[C@@H]1[C@@H](O)[C@@H](O)[C@@H](CO)O[C@@H]1O	0.4			
CC(=O)OCC[N+](C)(C)C	0.2			
CCC(=O)O		< 50	inactive	
OC[C@H]1OC(O)[C@H](O)[C@@H](O)[C@@H]1O (stereo not given in full)		< 50	inactive	
CC(=O)O	0.7			
CCN(CC)CCCC(C)Nc1ccnc2cc(Cl)ccc12 (stereo not given)				Active
